Results: paper PMC2941777 (Molecular pharmaceutics, 2009)
Read-outs that look alike come from different tables or passages of the source. Marks after values point to notes of the source that are not given here.

Experiments:
[1] = system: efflux transporters Mrp2 and Bcrp1; conditions: 50 μM MK-571 and 40 μM dipyridamole in perfusate; after 90 min; p<0.05
Caco-2 cell membranes = conditions: cited from earlier work
[2] = system: UDP-glucuronosyltransferases (UGT), rat liver microsomes; assay: Glucuronidation of naringenin in rat liver microsomes
[3] = system: UDP-glucuronosyltransferases (UGT); assay: in vitro; conditions: Wistar, rat, pH 7.4
[4] = system: efflux transporters Mrp2 and Bcrp1; format: in vivo, rat; conditions: 10 μM naringenin
[5] = target: efflux transporters Mrp2 and Bcrp1 (Rattus norvegicus, UniProt Q63120); format: in vivo; conditions: ileum; 50 μM MK-571 with 40 μM dipyridamole
[6] = system: UDP-glucuronosyltransferases (UGT); assay: Glucuronidation of naringenin in rat jejunum microsomes; conditions: Wistar, rat, pH 7.4
[7] = system: UDP-glucuronosyltransferases (UGT), rat jejunum microsomes; assay: as above
[8] = format: in vivo, rat; conditions: 10 μM naringenin perfusate
[9] = system: UDP-glucuronosyltransferases (UGT), rat colon microsomes; assay: Glucuronidation of naringenin in rat colon microsomes; format: in vitro ADME
[10] = system: UDP-glucuronosyltransferases (UGT); assay: as above; format: in vitro ADME; conditions: Wistar, rat, pH 7.4
[11] = system: UDP-glucuronosyltransferases (UGT), rat ileum microsomes; assay: Glucuronidation of naringenin in rat ileum microsomes
[12] = system: UDP-glucuronosyltransferases (UGT); assay: as above; conditions: Wistar, rat, pH 7.4
[13] = system: UDP-glucuronosyltransferases (UGT); assay: Glucuronidation of naringenin in rat liver microsomes; conditions: Wistar, rat, pH 7.4
[14] = cited from earlier work
[15] = Steady-state blood concentration after intestinal perfusion; format: in vivo, rat; conditions: tail vein blood after perfusion with 10 μM naringenin for 2.5 h

Chain of efflux transporters Mrp2 and Bcrp1 (Rattus norvegicus, UniProt Q63120) (Q63120 whole entry): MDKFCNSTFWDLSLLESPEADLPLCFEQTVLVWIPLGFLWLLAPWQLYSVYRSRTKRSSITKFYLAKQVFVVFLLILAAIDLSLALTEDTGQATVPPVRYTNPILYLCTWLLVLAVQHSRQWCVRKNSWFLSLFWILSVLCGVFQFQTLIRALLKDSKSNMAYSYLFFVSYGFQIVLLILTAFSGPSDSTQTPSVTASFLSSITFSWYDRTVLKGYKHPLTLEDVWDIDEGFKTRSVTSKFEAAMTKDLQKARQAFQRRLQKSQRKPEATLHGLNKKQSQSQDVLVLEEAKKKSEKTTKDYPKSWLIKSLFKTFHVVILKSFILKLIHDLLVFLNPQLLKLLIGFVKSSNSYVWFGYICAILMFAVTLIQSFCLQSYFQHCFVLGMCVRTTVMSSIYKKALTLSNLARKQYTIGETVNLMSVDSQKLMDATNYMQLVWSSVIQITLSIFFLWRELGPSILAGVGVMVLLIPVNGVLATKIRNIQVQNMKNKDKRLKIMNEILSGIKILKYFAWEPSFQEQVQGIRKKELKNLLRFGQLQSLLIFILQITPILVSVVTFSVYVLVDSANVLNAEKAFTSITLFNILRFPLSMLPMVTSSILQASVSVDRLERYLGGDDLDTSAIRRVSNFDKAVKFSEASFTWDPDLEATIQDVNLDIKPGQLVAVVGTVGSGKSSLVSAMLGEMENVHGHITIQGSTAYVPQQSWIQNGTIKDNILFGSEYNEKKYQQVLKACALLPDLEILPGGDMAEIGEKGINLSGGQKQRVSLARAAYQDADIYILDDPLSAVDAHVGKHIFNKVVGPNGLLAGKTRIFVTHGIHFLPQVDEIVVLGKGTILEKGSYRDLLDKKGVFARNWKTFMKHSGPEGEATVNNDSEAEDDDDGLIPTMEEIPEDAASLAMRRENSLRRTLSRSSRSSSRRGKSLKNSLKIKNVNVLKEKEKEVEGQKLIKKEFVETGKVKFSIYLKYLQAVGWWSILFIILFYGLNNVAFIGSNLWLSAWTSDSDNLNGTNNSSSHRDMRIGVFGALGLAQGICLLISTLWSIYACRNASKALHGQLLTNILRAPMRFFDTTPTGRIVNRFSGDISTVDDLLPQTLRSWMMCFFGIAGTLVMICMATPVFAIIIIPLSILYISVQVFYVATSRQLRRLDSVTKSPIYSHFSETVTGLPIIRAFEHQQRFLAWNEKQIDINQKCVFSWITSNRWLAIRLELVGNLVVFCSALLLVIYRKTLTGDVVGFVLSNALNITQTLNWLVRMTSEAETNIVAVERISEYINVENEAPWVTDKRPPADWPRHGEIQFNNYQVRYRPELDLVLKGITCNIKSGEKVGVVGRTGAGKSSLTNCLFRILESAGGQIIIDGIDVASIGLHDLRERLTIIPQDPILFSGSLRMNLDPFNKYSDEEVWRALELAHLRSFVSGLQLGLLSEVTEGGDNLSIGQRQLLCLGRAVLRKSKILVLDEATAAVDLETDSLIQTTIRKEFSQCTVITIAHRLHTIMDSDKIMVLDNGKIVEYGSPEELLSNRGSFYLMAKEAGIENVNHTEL

CN(C)C(=O)CCSC(SCCC(=O)O)c1cccc(/C=C/c2ccc3ccc(Cl)cc3n2)c1 (centres unmarked) [MK-571]
effect on the biliary excretion of aglycone, inhibitors used simultaneously [1]: increased | permeability across Caco-2 cell membranes (Caco-2 cell membranes): ~10 ×10⁻⁶ cm/s | effect on metabolism rate of naringenin, MK-571 and dipyridamole used together ([2]; 10 μM naringenin, p < 0.05 vs control): decreased significantly | inhibition at 40 min, 50 μM [3]: 50% | effect on the absorption of naringenin, two inhibitors used together ([4]; 50 μM MK-571 + 40 μM dipyridamole): did not change | effect on the efflux of glucuronides in duodenum and jejunum, two inhibitors used together ([4]; 50 μM MK-571 + 40 μM dipyridamole, p < 0.05): decreased substantially | effect of inhibitor on the absorption of naringenin ([4]; inhibitor alone (50 μM MK-571 or 40 μM dipyridamole), four regions of intestine): no effect | decrease in dipyridamole-stimulated glucuronide efflux by MK-571 [5]: more than 80%

OCCN(CCO)c1nc(N2CCCCC2)c2nc(N(CCO)CCO)nc(N3CCCCC3)c2n1 [dipyridamole, Dipyridamole]
permeability across Caco-2 cell membranes (Caco-2 cell membranes): ~10 ×10⁻⁶ cm/s

O=C1C[C@@H](c2ccc(O)cc2)Oc2cc(O)cc(O)c21 [naringenin, Naringenin]
Km [6]: 3.62 µM | R (autoact only), rate of enzyme activity activation [7]: 0.39 | Vmax-d (maximum activation of enzyme activity) [7]: 5.53 nmol/min/mg protein | Vmax-o (intrinsic enzyme activity) [7]: 2.00 nmol/min/mg protein | Vmax ([7]; sum of Vmax-0 and Vmax-d): 7.53* nmol/min/mg protein | amounts of naringenin absorbed (% of perfused amounts or Mtotal) ([8]; colon): 68% | amounts of naringenin absorbed (% of perfused amounts or Mtotal) ([8]; duodenum): 47% | amounts of naringenin absorbed (% of perfused amounts or Mtotal) ([8]; jejunum): 39% | amounts of naringenin absorbed (% of perfused amounts or Mtotal) ([8]; terminal ileum): 42% | R (autoact only), rate of enzyme activity activation [9]: 1.14 | Vmax-d (maximum activation of enzyme activity) [9]: 5.49 nmol/min/mg protein | Vmax-o (intrinsic enzyme activity) [9]: 1.08 nmol/min/mg protein | Vmax ([9]; sum of Vmax-0 and Vmax-d): 6.56* nmol/min/mg protein | Km [10]: 21.2 µM | Vmax [11]: 1.99* nmol/min/mg protein | Km [12]: 2.54 µM | Km [13]: 13.4 µM | R (autoact only), rate of enzyme activity activation [2]: 0.38 | Vmax-d (maximum activation of enzyme activity) [2]: 7.40 nmol/min/mg protein | Vmax-o (intrinsic enzyme activity) [2]: 5.83 nmol/min/mg protein | Vmax ([2]; sum of Vmax-0 and Vmax-d): 13.23* nmol/min/mg protein | bioavailability [14]: less than 10% | intact naringenin in blood [15]: not detected
